Experimental data from the Kinase Knowledgebase extract (Sharma et al. 2016).

Legend:
MAPK14 [1] = biological target: MAPK14 (UniProt Q16539)
MAPK14 [2] = biological target: MAPK14 (UniProt Q16539); remark: listed apart in the source
MAPK14 [3] = biological target: MAPK14 (UniProt Q16539); remark: listed apart in the source

MAPK14, sequence (Q16539 whole entry, looked up): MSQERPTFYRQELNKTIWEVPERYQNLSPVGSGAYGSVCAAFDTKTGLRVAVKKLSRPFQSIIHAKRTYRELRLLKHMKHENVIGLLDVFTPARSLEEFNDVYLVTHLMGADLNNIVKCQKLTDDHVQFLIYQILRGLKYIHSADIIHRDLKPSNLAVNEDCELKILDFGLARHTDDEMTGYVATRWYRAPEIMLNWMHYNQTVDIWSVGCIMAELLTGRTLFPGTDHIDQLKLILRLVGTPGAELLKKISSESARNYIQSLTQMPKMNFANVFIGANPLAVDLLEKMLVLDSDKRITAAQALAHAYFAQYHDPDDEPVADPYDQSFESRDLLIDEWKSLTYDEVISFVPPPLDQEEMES

SMILES | IC50 (MAPK14 [1]) [µM] | IC50 (MAPK14 [2]) [µM] | IC50 (MAPK14 [3]) [µM]
Fc1ccc(Oc2nccc(-c3c(-c4ccc(F)cc4)ncn3CCCN3CCOCC3)n2)cc1 |  | < 50 | < 50
Fc1ccc(-c2ncn(C3CCNCC3)c2-c2ccnc(Oc3ccc(OCc4ccccc4)cc3)c2)cc1 | < 50 |  | 
Fc1ccc(-c2ncn(C3CCNCC3)c2-c2ccnc(Oc3ccc(Cl)cc3)c2)cc1 | < 50 |  | 
Fc1ccc(-c2ncn(CCCN3CCOCC3)c2-c2ccnc(Oc3ccccc3)n2)cc1 | < 50 |  | < 50
Fc1ccc(-c2ncn(C3CCNCC3)c2-c2ccnc(Oc3ccccc3)c2)cc1 | < 50 | < 50 | < 50

Other lines, results leading:

IC50 (MAPK14 [1]) [µM] | IC50 (MAPK14 [2]) [µM] | IC50 (MAPK14 [3]) [µM] | SMILES
< 50 | < 50 | < 50 | Fc1ccc(Oc2cc(-c3c(-c4ccc(F)cc4)ncn3C3CCNCC3)ccn2)cc1
< 50 | < 50 | < 50 | Cn1nnnc1Sc1cc(-c2c(-c3ccc(F)cc3)ncn2C2CCNCC2)ccn1
< 50 | < 50 |  | Fc1ccc(-c2ncn(C3CCNCC3)c2-c2ccnc(Sc3ccccc3)c2)cc1
< 50 | < 50 | < 50 | COc1ccc(Oc2cc(-c3c(-c4ccc(F)cc4)ncn3C3CCNCC3)ccn2)cc1
< 50 |  |  | Cc1ccc(Oc2cc(-c3c(-c4ccc(F)cc4)ncn3C3CCNCC3)ccn2)cc1
